Measurements: ChEMBL document CHEMBL1153834, “Orally administered combined regimens for treatment of Mycobacterium ulcerans infection in mice” (2007)
Values after ≈ are worked out from the molar mass of the structure shown. Active and inactive are the calls of the source. The rule behind the calls is not given here.

How the values were obtained:
Mycobacterium ulcerans [1] = assay: Antimycobacterial activity against Mycobacterium ulcerans isolate CU001; type: functional
Mycobacterium ulcerans [2] = assay: Antimycobacterial activity against Mycobacterium ulcerans isolate CU001 infected in BALB/c mouse left hind foot-pad assessed as bacterial load per culture-positive foot-pad at 100 mg/kg, po administered for 5 days per week measured after 4 weeks; type: functional
Mycobacterium ulcerans [3] = assay: Antimycobacterial activity against Mycobacterium ulcerans isolate CU001 infected in BALB/c mouse left hind foot-pad assessed as bacterial load at 100 mg/kg, po administered for 5 days per week measured after 4 weeks; type: functional
Mycobacterium ulcerans [4] = assay: Antimycobacterial activity against Mycobacterium ulcerans isolate CU001 infected in BALB/c mouse left hind foot-pad assessed as incidence of bacterial infection at 100 mg/kg, po administered for 5 days per week measured after 8 weeks; type: functional, organism-based; parameters: dose 100 mg/kg
Mycobacterium ulcerans [5] = assay: Antimycobacterial activity against Mycobacterium ulcerans isolate CU001 infected in BALB/c mouse left hind foot-pad assessed as bacterial load at 100 mg/kg, po administered for 5 days per week measured after 8 weeks; type: functional
Mycobacterium ulcerans [6] = assay: Antimycobacterial activity against Mycobacterium ulcerans isolate CU001 infected in BALB/c mouse left hind foot-pad assessed as bacterial load per culture-positive foot-pad at 10 mg/kg, po administered for 5 days per week measured after 8 weeks; type: functional
Mycobacterium ulcerans [7] = assay: Antimycobacterial activity against Mycobacterium ulcerans isolate CU001 infected in BALB/c mouse left hind foot-pad assessed as bacterial load per culture-positive foot-pad at 10 mg/kg, po administered for 5 days per week measured after 4 weeks; type: functional
Mycobacterium ulcerans [8] = assay: Antimycobacterial activity against Mycobacterium ulcerans isolate CU001 infected in BALB/c mouse left hind foot-pad assessed as bacterial load at 10 mg/kg, po administered for 5 days per week measured after 4 weeks; type: functional
Mycobacterium ulcerans [9] = assay: Antimycobacterial activity against Mycobacterium ulcerans isolate CU001 infected in BALB/c mouse left hind foot-pad assessed as incidence of bacterial infection at 10 mg/kg, po administered for 5 days per week measured after 8 weeks; type: functional, organism-based; parameters: dose 10 mg/kg
Mycobacterium ulcerans [10] = assay: Antimycobacterial activity against Mycobacterium ulcerans isolate CU001 infected in BALB/c mouse left hind foot-pad assessed as bacterial load at 10 mg/kg, po administered for 5 days per week measured after 8 weeks; type: functional, organism-based; parameters: dose 10 mg/kg

| Compound | MIC (Mycobacterium ulcerans [1]) [µg/mL] | log10cfu (Mycobacterium ulcerans [2]) | log10cfu (Mycobacterium ulcerans [3]) | Activity (Mycobacterium ulcerans [4]) | log10cfu (Mycobacterium ulcerans [5]) | log10cfu (Mycobacterium ulcerans [6]) | log10cfu (Mycobacterium ulcerans [7]) | log10cfu (Mycobacterium ulcerans [8]) | Activity (Mycobacterium ulcerans [9]) | Activity (Mycobacterium ulcerans [10]) |
| --- | --- | --- | --- | --- | --- | --- | --- | --- | --- | --- |
| CN[C@@H]1[C@H](O[C@H]2[C@H](O[C@H]3[C@H](O)[C@@H](O)[C@H](N=C(N)N)[C@@H](O)[C@@H]3N=C(N)N)O[C@@H](C)[C@]2(O)C=O)O[C@@H](CO)[C@H](O)[C@H]1O [STREPTOMYCIN] | 0.5 (≈ 0.86 µM) |  |  |  |  |  |  |  |  |  |
| CC[C@H]1OC(=O)[C@H](C)[C@@H](O[C@H]2C[C@@](C)(OC)[C@@H](O)[C@H](C)O2)[C@H](C)[C@@H](O[C@@H]2O[C@H](C)C[C@H](N(C)C)[C@H]2O)[C@](C)(OC)C[C@@H](C)C(=O)[C@H](C)[C@@H](O)[C@]1(C)O [CLARITHROMYCIN] | 0.5 (≈ 0.668 µM) | 3.43 | 2.53 | Active | 1.25 |  |  |  |  |  |
| COc1c(N2C[C@@H]3CCCN[C@@H]3C2)c(F)cc2c(=O)c(C(=O)O)cn(C3CC3)c12 [MOXIFLOXACIN] | 0.25 (≈ 0.623 µM) | 3.23 | 2.99 |  | 1.25 | 1.72 |  |  |  |  |
| CO[C@H]1/C=C/O[C@@]2(C)Oc3c(C)c(O)c4c(O)c(c(/C=N/N5CCN(C)CC5)c(O)c4c3C2=O)NC(=O)/C(C)=C\C=C\[C@H](C)[C@H](O)[C@@H](C)[C@@H](O)[C@@H](C)[C@H](OC(C)=O)[C@@H]1C [RIFAMPIN] | 2 (≈ 2.43 µM) |  |  |  |  |  | 1.52 | 0.46 | Active | Active |
